Measured values: US20160227774A1 (priority 2015, published 2016)
Where “and” joins values, the source holds several entries; their conditions need not be identical. Equal entries are not always repeated. Structures can show the parent of a compound that is named as a salt. Where two headings read alike, the source gives them in different places.

Assays:
[1] = tested on: Candidatus Liberibacter asiaticus (Las); assay type: in vivo
[2] = tested on: Ca. Liberibacter asiaticus; assay type: in vivo, Candidatus Liberibacter asiaticus; conditions: for CT, 1 (mean CT values 1-week after injection) / CT, 0 (mean CT values prior to injection): 4 trees; for CT, 0 (mean CT values prior to injection): baseline; for Effect on Las bacterial populations (in words): second trial, statistical significance only in the first trial
[3] = tested on: Candidatus Liberibacter asiaticus (Las); assay type: in vivo; remark: listed apart in the source
[4] = tested on: HLB disease; experiment: Trial I (Example 3): HLB disease severity (sAUDPS), Midsweet orange, foliar spray; assay type: in vivo, Citrus sinensis; conditions: end of the experiment
[5] = tested on: Candidatus Liberibacter asiaticus (Las); assay type: in vivo; conditions: Example 6; Valencia sweet orange (4-year); BABA 0.2-1.0 mM, 2-DDG 100 μM; foliar spraying
[6] = tested on: β-1,3-glucanase gene (PR-2), calS1, pp2; assay type: in vivo, Citrus sinensis; conditions: for PR-2, calS1 or pp2 gene expression (in words): AA 60 μM, INA 0.1 mM
[7] = tested on: Candidatus Liberibacter asiaticus (Las); assay type: in vivo; conditions: BABA 1.0 mM, 2-DDG 100 μM; for Reduction of Las titer compared to control at the end of the experiments: Example 5, Murcott mandarin (10-year), foliar spraying
[8] = tested on: Midsweet orange; design: species or system Citrus sinensis; conditions: in vivo
[9] = tested on: β-1,3-glucanase gene (PR-2), calS1, pp2; assay type: in vivo, Citrus sinensis; conditions: 2-DDG 100 μM
[10] = tested on: Midsweet orange; assay type: in vivo, Citrus sinensis; conditions: BABA 150 μM, INA 0.5 mM, AA 600 μM, CuSO4 0.3 mM, alone or combined
[11] = November 2013, BABA 15 μM, INA 0.1 mM, AA 60 μM
[12] = Trial 2 (September, 2014), trunk injection SA 8, OTC 7, OA, PPD, ICD, AA, BABA 5 mg ai/tree
[13] = November 2013, BABA 0.2 mM, INA 0.1 mM, AA 60 μM, 2-DDG 10 μM
[14] = November 2013, BABA 1.0 mM, INA 0.5 mM, BTH 1.0 mM, AA 600 μM, 2-DDG 100 μM, alone or combined
[15] = October 2014 (end of the experiment), BABA 0.2 mM, INA 0.1 mM, AA 60 μM, 2-DDG 10 μM
[16] = October 2014 (end of the experiment), BABA 1.0 mM, INA 0.5 mM, BTH 1.0 mM, AA 600 μM, 2-DDG 100 μM, alone or combined
[17] = Trial 1 (July, 2014), trunk injection SA 32, OA 40, PPD 40, ICD 67, OTC 50 mg ai/tree

CC(N)CC(=O)O (racemic) [BABA, β-aminobutyric acid]
Reduction of Las titer compared to control at the end of the experiments ([1]; Example 3, Midsweet orange (7-year), BABA 15 μM-150 μM, foliar spraying): 0.63 log unit per gram plant tissue
Las population [1, 11]: (3.67 ± 0.59) × 10^6 Cells/g of plant tissue
Las population ([1]; November 2013, BABA 150 μM): (6.48 ± 0.61) × 10^6 Cells/g of plant tissue
ΔCT = CT, 1 − CT, 0 [2, 12]: 0.50
CT, 1 (mean CT values 1-week after injection) [2, 12]: 22.60
CT, 0 (mean CT values prior to injection) [2, 12]: 22.10
Effect on Las bacterial titer versus control one week after injection (in words) ([2]; trunk injection, both trials): greatly decreased
Reduction of Las titer compared to control at the end of the experiments ([3]; Example 4, Midsweet orange (8-year), BABA 0.2 mM, foliar spraying): 0.66 log unit per gram plant tissue
Las population [3, 13]: (3.45 ± 0.32) × 10^6 Cells/g of plant tissue
Las population [3, 14]: (4.23 ± 1.22) × 10^6 Cells/g of plant tissue
Las population [3, 15]: (5.84 ± 0.25) × 10^6 Cells/g of plant tissue
Las population [3, 16]: (0.95 ± 0.26) × 10^7 Cells/g of plant tissue
HLB disease severity (sAUDPS) reduced by, compared with the negative control ([4]; AA 60 μM, BABA 15 μM): 28.6%
HLB disease severity (sAUDPS) reduced by, compared with the negative control ([4]; BABA 150 μM): 21.4%
Reduction of Las titer compared to control at the end of the experiments [5]: 0.68 log unit per gram plant tissue
PR-2 gene expression (in words) ([6]; BABA 150 μM, 6 days after treatment): no significant change
PR-2 gene expression compared to the negative control ([6]; in vivo): 3.0 fold
pp2 (phloem protein-2) or calS1 expression (in words) ([6]; in vivo): no effect
Reduction of Las titer compared to control at the end of the experiments [7]: 0.66 log unit per gram plant tissue

O=CC[C@@H](O)[C@H](O)[C@H](O)CO [2-DDG, 2-deoxy-D-glucose]
Fruit acidity [8]: 0.73 a percent citric acid and 0.67 a percent citric acid and 0.69 a percent citric acid and 0.66 a percent citric acid
Fruit brix [8]: 9.63 a and 10.41 a and 9.20 a and 10.10 a
Fruit brix acidity ratio [8]: 15.19 a and 13.19 a and 15.17 a and 13.33 a
Las population [3, 13]: (4.45 ± 0.94) × 10^6 Cells/g of plant tissue
Las population [3, 14]: (2.64 ± 0.76) × 10^6 Cells/g of plant tissue
Las population [3, 15]: (0.91 ± 0.32) × 10^7 Cells/g of plant tissue
Las population [3, 16]: (4.17 ± 1.02) × 10^6 Cells/g of plant tissue
PR-2, pp2 or calS1 induction (in words) [9]: not able to induce
Reduction of Las titer compared to control at the end of the experiments [5]: 0.70 log unit per gram plant tissue
Reduction of Las titer compared to control at the end of the experiments [7]: 0.66 log unit per gram plant tissue

O=C1O[C@H]([C@@H](O)CO)C([O-])=C1O.[Na+] [AA, L-Ascorbic acid sodium salt, reference compound]
Fruit brix acidity ratio ([8]; sodium salt): 14.87 a and 12.55 a
Percent juice content ([8]; sodium salt): 53.3 a and 51.1 a
Las population [1, 11]: (3.56 ± 0.57) × 10^6 Cells/g of plant tissue
ΔCT = CT, 1 − CT, 0 [2, 12]: −0.50
CT, 1 (mean CT values 1-week after injection) [2, 12]: 21.65
CT, 0 (mean CT values prior to injection) [2, 12]: 22.15
Las population [3, 13]: (2.99 ± 0.95) × 10^6 Cells/g of plant tissue
Las population [3, 15]: (3.98 ± 0.81) × 10^6 Cells/g of plant tissue
HLB disease severity (sAUDPS) reduced by, compared with the negative control ([4]; AA 60 μM, BABA 15 μM): 21.3%
PR-2, calS1 or pp2 gene expression (in words) [6]: not able to induce
Las population ([7]; Feb.2015, AA 600 μM, INA 0.5 mM, BTH 1.0 mM): (3.12 ± 0.22) × 10^7 a Cells/g of leaf tissue

CSC(=O)c1cccc2nnsc12 [ASM, acibenzolar-S-methyl]
Effect on Las bacterial populations (in words) ([2]; trunk injection): moderately reduced

O=S(=O)([O-])[O-].[Cu+2] [CuSO4, Copper Sulphate]
Yield [10]; 2013: 28.4 c kg/tree
Yield [10]; 2014: 24.1 c kg/tree

O=[N+]([O-])NC1=NCCN1Cc1ccc(Cl)nc1 [ICD, imidacloprid]
ΔCT = CT, 1 − CT, 0 [2, 17]: 0.08
CT, 1 (mean CT values 1-week after injection) [2, 17]: 24.50
CT, 0 (mean CT values prior to injection) [2, 17]: 24.42
ΔCT = CT, 1 − CT, 0 [2, 12]: 0.13
CT, 1 (mean CT values 1-week after injection) [2, 12]: 24.02
CT, 0 (mean CT values prior to injection) [2, 12]: 23.89
Effect on Las bacterial titer versus control one week after injection (in words) ([2]; in vivo): did not statistically significantly reduce

O=C(O)c1cc(Cl)nc(Cl)c1 [INA, 2,6-dichloro-isonicotinic acid, reference compound]
Percent juice content [8]: 50.5 a and 51.1 a
Las population [1, 11]: (4.06 ± 0.25) × 10^6 Cells/g of plant tissue
Las population ([1]; October 2014 (end of the experiment), BABA 15 μM, INA 0.1 mM, AA 60 μM): (5.94 ± 0.36) × 10^6 Cells/g of plant tissue
Effect on Las bacterial titer versus control one week after injection (in words) ([2]; trunk injection, both trials): did not statistically significantly reduce
Las population [3, 13]: (2.07 ± 0.33) × 10^6 Cells/g of plant tissue
Las population [3, 15]: (3.91 ± 0.85) × 10^6 Cells/g of plant tissue
PR-2, calS1 or pp2 gene expression (in words) [6]: not able to induce

O=C(O)C(=O)O [OA, oxalic acid]
ΔCT = CT, 1 − CT, 0 [2, 17]: 2.83
CT, 1 (mean CT values 1-week after injection) [2, 17]: 26.59
CT, 0 (mean CT values prior to injection) [2, 17]: 23.76
ΔCT = CT, 1 − CT, 0 [2, 12]: 0.70
CT, 1 (mean CT values 1-week after injection) [2, 12]: 26.17
CT, 0 (mean CT values prior to injection) [2, 12]: 25.47
ΔCT compared with that of OTC (in words) ([2]; trunk injection): not significantly different
Effect on Las bacterial titer versus control one week after injection (in words) ([2]; trunk injection, both trials): significantly reduced

CN(C)[C@@H]1C(O)=C(C(N)=O)C(=O)[C@@]2(O)C(O)=C3C(=O)c4c(O)cccc4[C@@](C)(O)[C@H]3[C@H](O)[C@@H]12 [OTC, oxytetracycline hydrochloride, reference compound]
ΔCT = CT, 1 − CT, 0 [2, 17]: 1.33
CT, 1 (mean CT values 1-week after injection) [2, 17]: 29.28
CT, 0 (mean CT values prior to injection) [2, 17]: 27.95
ΔCT = CT, 1 − CT, 0 [2, 12]: 0.90
CT, 1 (mean CT values 1-week after injection) [2, 12]: 25.54
CT, 0 (mean CT values prior to injection) [2, 12]: 24.64

O=P([O-])([O-])O.[K+].[K+] [PPD, potassium phosphate dibasic, reference compound]
ΔCT = CT, 1 − CT, 0 [2, 17]: 2.64
CT, 1 (mean CT values 1-week after injection) [2, 17]: 26.56
CT, 0 (mean CT values prior to injection) [2, 17]: 23.92
ΔCT = CT, 1 − CT, 0 [2, 12]: 0.34
CT, 1 (mean CT values 1-week after injection) [2, 12]: 23.63
CT, 0 (mean CT values prior to injection) [2, 12]: 23.29
Effect on Las bacterial populations (in words) ([2]; trunk injection): moderately reduced

O=C(O)c1ccccc1O [SA, salicylic acid]
ΔCT = CT, 1 − CT, 0 [2, 17]: 1.73
CT, 1 (mean CT values 1-week after injection) [2, 17]: 25.34
CT, 0 (mean CT values prior to injection) [2, 17]: 23.61
ΔCT = CT, 1 − CT, 0 [2, 12]: 0.95
CT, 1 (mean CT values 1-week after injection) [2, 12]: 24.88
CT, 0 (mean CT values prior to injection) [2, 12]: 23.93
ΔCT compared with that of OTC (in words) ([2]; trunk injection): not significantly different
Effect on Las bacterial titer versus control one week after injection (in words) ([2]; trunk injection, both trials): significantly reduced
